In the data set the test system is tobacco budworm (Heliothis virescens [Fabricius]). Description: surface-treated diet test against tobacco budworm. In kind it is in vivo. The note with it: 0.25 millimolar on the surface of the diet, second instar larvae, five-day exposure; for Percent Mortality: compared to the total number of insects infested; for Percent Growth Inhibition: inhibition of insect weight relative to untreated controls. As to the method:
Candidate insecticides were evaluated for activity against the tobacco budworm (Heliothis virescens [Fabricius]) in a surface-treated diet test.
In this test one mL of molten (65-70° C.) wheat germ-based artificial diet was pipetted into each well of a four by six (24 well) multi-well plate (ID# 430345-15.5 mm dia.×17.6 mm deep; Corning Costar Corp., One Alewife Center, Cambridge, Mass. 02140). The diet was allowed to cool to ambient temperature before treatment with candidate insecticide.
For a determination of insecticidal activity, solutions of the candidate insecticides were prepared for testing using a Packard 204DT Multiprobe® Robotic System (Packard Instrument Company, 800 Research Parkway, Meriden, Conn. 06450), in which the robot first diluted a standard 50 millimolar DMSO solution of candidate insecticide with a 1:1 water/acetone solution (V/V) in a ratio of 1:7 stock solution to water/acetone. The robot subsequently pipetted 40 microliters of the so-prepared solution onto the surface of the diet in each of three wells in the 24 multi-well plate. The process was repeated with solutions of seven other candidate insecticides. Once treated, the contents of the multi-well plate were allowed to dry, leaving 0.25 millimoles of candidate insecticide on the surface of the diet, or a concentration of 0.25 millimolar. Appropriate untreated controls containing only DMSO on the diet surface were also included in this test.
For evaluations of the insecticidal activity of a candidate insecticide at varying rates of application, the test was established as described above using sub-multiples of the standard 50 millimolar DMSO solution of candidate insecticide. For example, the standard 50 millimolar solution was diluted by the robot with DMSO to give 5, 0.5, 0.05, 0.005, 0.0005 millimolar, or more dilute solutions of the candidate insecticide. In these evaluations there were six replicates of each rate of application placed on the surface of the diet in the 24 multi-well plate, for a total of four rates of application of candidate insecticide in each plate.
In each well of the test plate was placed one second instar tobacco budworm larvae, each weighing approximately five milligrams. After the larvae were placed in each well, the plate was sealed with clear polyfilm adhesive tape. The tape over each well was perforated to ensure an adequate air supply. The plates were then held in a growth chamber at 25° C. and 60% relative humidity for five days (light 14 hours/day).
After the five-day exposure period insecticidal activity for each rate of application of candidate insecticide was assessed as percent inhibition of insect weight relative to the weight of insects from untreated controls, and percent mortality when compared to the total number of insects infested.
The test compounds of formula I are identified by numbers that correspond to those in Table 1.

Turning to `CC1(C)CCOC(c2ccc(CN3CCC(C(O)(c4ccc(OC(F)(F)F)cc4)c4ccc(OC(F)(F)F)cc4)CC3)cc2)O1` (centres unmarked) [Compound 69], the “Percent Mortality” value came to 100% and the “Percent Growth Inhibition” value was 100%.
In the case of `CC1(C)CCOC(c2ccc(C[N+]3([O-])CCC(C(O)(c4ccc(OC(F)(F)F)cc4)c4ccc(OC(F)(F)F)cc4)CC3)cc2)O1` (centres unmarked) [Compound 70], the “Percent Mortality” value came out at 100% and the “Percent Growth Inhibition” value was found to be 100%.
Turning to `CC(=O)N1CCSC1c1ccc(CN2CCC(C(O)(c3ccc(OC(F)(F)F)cc3)c3ccc(OC(F)(F)F)cc3)CC2)cc1` (centres unmarked) [Compound 71], the “Percent Mortality” value was determined as 33% and the “Percent Growth Inhibition” value is recorded as 100%.
In the case of `CCCC1COC(c2ccc(CN3CCC(C(O)(c4ccc(OC(F)(F)F)cc4)c4ccc(OC(F)(F)F)cc4)CC3)cc2)O1` (centres unmarked) [Compound 72], the “Percent Mortality” value was 100% and the “Percent Growth Inhibition” value came to 100%.
Take `CN(C)C(=O)N1CCSC1c1ccc(CN2CCC(C(O)(c3ccc(OC(F)(F)F)cc3)c3ccc(OC(F)(F)F)cc3)CC2)cc1` (centres unmarked) [Compound 73]: the “Percent Mortality” value was found to be 100% and the “Percent Growth Inhibition” value worked out at 100%.
Take `CCCC1COC(c2ccc(C[N+]3([O-])CCC(C(O)(c4ccc(OC(F)(F)F)cc4)c4ccc(OC(F)(F)F)cc4)CC3)cc2)O1` (centres unmarked) [Compound 74]: the “Percent Mortality” value is recorded as 100% and the “Percent Growth Inhibition” value worked out at 100%.
Regarding `CC1(C)OCC(c2ccc(CN3CCC(C(O)(c4ccc(OC(F)(F)F)cc4)c4ccc(OC(F)(F)F)cc4)CC3)cc2)O1` (centres unmarked) [Compound 76], the “Percent Mortality” value came to 100% and the “Percent Growth Inhibition” value is 100%.
For the compound `CC1(C)OCC(c2ccc(C[N+]3([O-])CCC(C(O)(c4ccc(OC(F)(F)F)cc4)c4ccc(OC(F)(F)F)cc4)CC3)cc2)O1` (centres unmarked) [Compound 77], the “Percent Mortality” value came to 100% and the “Percent Growth Inhibition” value is recorded as 100%.
Consider `CC1CC(C)(C)OC(c2ccc(CN3CCC(C(O)(c4ccc(OC(F)(F)F)cc4)c4ccc(OC(F)(F)F)cc4)CC3)cc2)O1` (centres unmarked) [Compound 78], for which the “Percent Mortality” value was determined as 100% and the “Percent Growth Inhibition” value amounted to 100%.
As for `[O-][N+]1(Cc2ccc(C3OCCC(c4ccccc4)O3)cc2)CCC(C(O)(c2ccc(OC(F)(F)F)cc2)c2ccc(OC(F)(F)F)cc2)CC1` (centres unmarked) [Compound 79], the “Percent Mortality” value stood at 100% and the “Percent Growth Inhibition” value came to 100%.
As for `CC1CC(C)(C)OC(c2ccc(C[N+]3([O-])CCC(C(O)(c4ccc(OC(F)(F)F)cc4)c4ccc(OC(F)(F)F)cc4)CC3)cc2)O1` (centres unmarked) [Compound 80], the “Percent Mortality” value worked out at 100% and the “Percent Growth Inhibition” value amounted to 100%.
As to `OC(c1ccc(OC(F)(F)F)cc1)(c1ccc(OC(F)(F)F)cc1)C1CCN(Cc2ccc(C3(c4ccc(Cl)nc4)OCCO3)cc2)CC1` [Compound 83], the “Percent Mortality” value is reported as 0% and the “Percent Growth Inhibition” value stood at 31%.
Taken in the same sequence, the figures for `OC(c1ccc(OC(F)(F)F)cc1)(c1ccc(OC(F)(F)F)cc1)C1CCN(Cc2ccc(C3(c4cccc(Cl)c4)OCCO3)cc2)CC1` [Compound 85] were 100% and 100%.
In the same order, the values of `C=CC1COC(c2ccc(C[N+]3([O-])CCC(C(O)(c4ccc(OC(F)(F)F)cc4)c4ccc(OC(F)(F)F)cc4)CC3)cc2)O1` (centres unmarked) [Compound 86] are 100% and 100%.
On to `[O-][N+]1(Cc2ccc(C3(c4ccc(Cl)nc4)OCCO3)cc2)CCC(C(O)(c2ccc(OC(F)(F)F)cc2)c2ccc(OC(F)(F)F)cc2)CC1` (centres unmarked) [Compound 87], for which the “Percent Mortality” value is reported as 17% and the “Percent Growth Inhibition” value amounted to 79%.
Consider `COC(=O)N1CCSC1c1ccc(CN2CCC(C(O)(c3ccc(OC(F)(F)F)cc3)c3ccc(OC(F)(F)F)cc3)CC2)cc1` (centres unmarked) [Compound 89], for which the “Percent Mortality” value turned out to be 100% and the “Percent Growth Inhibition” value is 100%.
On to `CN1CCOC1c1ccc(CN2CCC(C(O)(c3ccc(OC(F)(F)F)cc3)c3ccc(OC(F)(F)F)cc3)CC2)cc1` (centres unmarked) [Compound 90], for which the “Percent Mortality” value is 100% and the “Percent Growth Inhibition” value is listed as 100%.
On to `C=CCOCC1COC(c2ccc(CN3CCC(C(O)(c4ccc(OC(F)(F)F)cc4)c4ccc(OC(F)(F)F)cc4)CC3)cc2)O1` (centres unmarked) [Compound 91], for which the “Percent Mortality” value is on record as 100% and the “Percent Growth Inhibition” value is 100%.
As for `OC(c1ccc(OC(F)(F)F)cc1)(c1ccc(OC(F)(F)F)cc1)C1CCN(Cc2ccc(C3OCC(COc4ccccc4)O3)cc2)CC1` (centres unmarked) [Compound 92], the “Percent Mortality” value is given as 100% and the “Percent Growth Inhibition” value was determined as 100%.
On to `C=CCOCC1COC(c2ccc(C[N+]3([O-])CCC(C(O)(c4ccc(OC(F)(F)F)cc4)c4ccc(OC(F)(F)F)cc4)CC3)cc2)O1` (centres unmarked) [Compound 93], for which the “Percent Mortality” value is on record as 100% and the “Percent Growth Inhibition” value came to 100%.
As to `[O-][N+]1(Cc2ccc(C3OCC(COc4ccccc4)O3)cc2)CCC(C(O)(c2ccc(OC(F)(F)F)cc2)c2ccc(OC(F)(F)F)cc2)CC1` (centres unmarked) [Compound 94], the “Percent Mortality” value was found to be 100% and the “Percent Growth Inhibition” value came to 100%.
With `O=C(NCC1COC(c2ccc(CN3CCC(C(O)(c4ccc(OC(F)(F)F)cc4)c4ccc(OC(F)(F)F)cc4)CC3)cc2)O1)OCc1ccccc1` (centres unmarked) [Compound 95], the “Percent Mortality” value is 100% and the “Percent Growth Inhibition” value was determined as 100%.
For the compound `CC(C)N1CCOC1c1ccc(CN2CCC(C(O)(c3ccc(OC(F)(F)F)cc3)c3ccc(OC(F)(F)F)cc3)CC2)cc1` (centres unmarked) [Compound 97], the “Percent Mortality” value is recorded as 50% and the “Percent Growth Inhibition” value is 100%.
Turning to `CCCCN1CCOC1c1ccc(CN2CCC(C(O)(c3ccc(OC(F)(F)F)cc3)c3ccc(OC(F)(F)F)cc3)CC2)cc1` (centres unmarked) [Compound 98], the “Percent Mortality” value came to 100% and the “Percent Growth Inhibition” value came out at 100%.
Consider `OC(c1ccc(OC(F)(F)F)cc1)(c1ccc(OC(F)(F)F)cc1)C1CCN(Cc2ccc(C3(c4ccoc4)OCCO3)cc2)CC1` [Compound 99], for which the “Percent Mortality” value is 100% and the “Percent Growth Inhibition” value is 100%.
As for `[O-][N+]1(Cc2ccc(C3(c4ccoc4)OCCO3)cc2)CCC(C(O)(c2ccc(OC(F)(F)F)cc2)c2ccc(OC(F)(F)F)cc2)CC1` (centres unmarked) [Compound 101], the “Percent Mortality” value is on record as 100% and the “Percent Growth Inhibition” value stood at 100%.
For `OC(c1ccc(OC(F)(F)F)cc1)(c1ccc(OC(F)(F)F)cc1)C1CCN(Cc2ccc(C3COCO3)cc2)CC1` (centres unmarked) [Compound 103], the “Percent Mortality” value came to 100% and the “Percent Growth Inhibition” value worked out at 100%.
Take `[O-][N+]1(Cc2ccc(C3COCO3)cc2)CCC(C(O)(c2ccc(OC(F)(F)F)cc2)c2ccc(OC(F)(F)F)cc2)CC1` (centres unmarked) [Compound 104]: the “Percent Mortality” value was 100% and the “Percent Growth Inhibition” value came to 100%.
Take `[O-][N+]1(Cc2ccc(C3OCC4OC4CO3)cc2)CCC(C(O)(c2ccc(OC(F)(F)F)cc2)c2ccc(OC(F)(F)F)cc2)CC1` (centres unmarked) [Compound 105]: the “Percent Mortality” value is listed as 100% and the “Percent Growth Inhibition” value amounted to 100%.
On to `NC1(CO)COC(c2ccc(CN3CCC(C(O)(c4ccc(OC(F)(F)F)cc4)c4ccc(OC(F)(F)F)cc4)CC3)cc2)OC1` (centres unmarked) [Compound 107], for which the “Percent Mortality” value came out at 100% and the “Percent Growth Inhibition” value was 100%.
In the case of `OC(c1ccc(OC(F)(F)F)cc1)(c1ccc(OC(F)(F)F)cc1)C1CCN(Cc2ccc(C3OCC(CN4CCCC4)O3)cc2)CC1` (centres unmarked) [Compound 108], the “Percent Mortality” value amounted to 33% and the “Percent Growth Inhibition” value amounted to 97%.
In the same order, the values of `[O-][N+]1(Cc2ccc(C3OCC(CN4CCCC4)O3)cc2)CCC(C(O)(c2ccc(OC(F)(F)F)cc2)c2ccc(OC(F)(F)F)cc2)CC1` (centres unmarked) [Compound 110] are 100% and 100%.
With `CC1(C)COC(c2ccc(CN3CCC(C(O)(c4ccc(OC(F)(F)F)cc4)c4ccc(OC(F)(F)F)cc4)CC3)cc2)O1` (centres unmarked) [Compound 111], the “Percent Mortality” value is 100% and the “Percent Growth Inhibition” value is given as 100%.
`CC1(C)COC(c2ccc(C[N+]3([O-])CCC(C(O)(c4ccc(OC(F)(F)F)cc4)c4ccc(OC(F)(F)F)cc4)CC3)cc2)O1` (centres unmarked) [Compound 112]: the “Percent Mortality” value is 100% and the “Percent Growth Inhibition” value was 100%.

The values above are taken from patent US20090082203A1, “INSECTICIDAL BIS(SUBSTITUTED PHENYL)-1-{[4-(SATURATED HETEROCYCLYL-SUBSTITUTED)PHENYLMETHYL]- (4-PIPERIDYL)}METHANE DERIVATIVES” (priority 2004, published 2009).
